Reference: patent US10711008B2, “Indoline analogs and uses thereof” (Oncternal Therapeutics, Inc., priority 2016, dated 2020)

Assays:
Type in all cases: cell-based, human
Conditions in all cases: 3 days with compound at 0.02 to 5 μM, CCK-8, A450, 50% inhibition of cell viability
[1] = test system: TC71 (Type 1, 7/6) cells (Ewing Sarcoma cell line); test: Cell growth inhibition, modified tetrazolium salt assay (CCK-8 kit), TC71 cells
Method: (§1) A modified tetrazolium salt assay using the CCK-8 kit (Sigma-Aldrich; St Louis, Mo.) was used to measure the inhibition of human tumor cell growth. Tumor cells (5000-7500 per well) were added to 96 well plates and allowed to attach for 4-5 hours. Compounds were serially diluted and added in triplicate at a concentration of 0.02 to 5 μM. DMSO was included as a vehicle control. Cells were incubated in the presence of compound for 3 days. After incubation CCK-8 reagent was added to each well and incubated for 2-4 hours. Viable cells were quantitated spectrophotometrically at a wavelength of 450 nm. Percent viability of each sample was calculated from the A450 values as follows: % viability=(A450 nm sample/A450 nm DMSO-treated cells×100). The IC50 was defined as the concentration that gave rise to 50% inhibition of cell viability. IC50 activities of particular compounds were determined using SKES (type 2, 7/5) cells (Ewing Sarcoma cell line), TC71 (Type 1, 7/6) cells (Ewing Sarcoma cell line), and A4573 (Type 3, 10/6) cells (Ewing Sarcoma cell line). […] TK-216 is a YK-4-279 clinical derivative that is in phase 1 for patients with relapsed or refractory Ewing sarcoma. Preclinical testing has been conducted for TK-216 in lymphoma models. Test results for the analogs were compared to those for TK-216 and YK-4-279.

[2] = test system: A4573 (Type 3, 10/6) cells (Ewing Sarcoma cell line); test: Cell growth inhibition, modified tetrazolium salt assay (CCK-8 kit), A4573 cells
Method: as §1

[3] = test system: SKES (type 2, 7/5) cells (Ewing Sarcoma cell line); test: Cell growth inhibition, modified tetrazolium salt assay (CCK-8 kit), SKES cells
Method: as §1

SMILES	IC50 ([1]; Homo sapiens, TC-71, 72 h)	IC50 ([2]; Homo sapiens, 72 h)	IC50 ([3]; Homo sapiens, 72 h)	IC50 [1]	IC50 [2]	IC50 [3]
O=C(CC1(O)C(=O)Nc2c(Cl)ccc(Cl)c21)c1ccc(OC(F)F)cc1 (stereo not drawn) [TK Analog 4]	> 5 µM	> 5 µM	> 5 µM	–	–	–
C#Cc1ccc(C(=O)CC2(O)C(=O)Nc3c(Cl)ccc(Cl)c32)cc1 (stereo not drawn) [TK Analog 5]	> 5 µM	> 5 µM	> 5 µM	–	–	–
COc1ccc(C(=O)CC2(N)C(=O)Nc3c(Cl)ccc(Cl)c32)cc1 (stereo not drawn) [TK Analog 8]	> 5 µM	> 5 µM	< 5 µM	–	–	–
O=C(CC1(O)C(=O)Nc2c(Cl)ccc(Cl)c21)c1ccc2occc2c1 (stereo not drawn) [TK Analog 9]	> 5 µM	> 5 µM	< 5 µM	–	–	–
CNC(=O)Oc1ccc(C(=O)CC2(O)C(=O)Nc3c(Cl)ccc(Cl)c32)cc1 (stereo not drawn) [TK Analog 13]	> 5 µM	> 5 µM	> 5 µM	–	–	–
CN(C)c1ccc(-c2cc3c(nn2)[nH]c2c(Cl)ccc(Cl)c23)cc1 [TK Analog 14]	> 5 µM	> 5 µM	> 5 µM	–	–	–
COc1ccc2nn(CC3(O)C(=O)Nc4c(Cl)ccc(Cl)c43)cc2c1 (stereo not drawn) [TK Analog 16A]	> 5 µM	> 5 µM	> 5 µM	–	–	–
COc1ccc2c(cnn2CC2(O)C(=O)Nc3c(Cl)ccc(Cl)c32)c1 (stereo not drawn) [TK Analog 16]	> 5 µM	> 5 µM	< 5 µM	–	–	–
COc1ccc2c(CC3(O)C(=O)Nc4c(Cl)ccc(Cl)c43)noc2c1 (stereo not drawn) [TK Analog 17]	> 5 µM	> 5 µM	> 5 µM	–	–	–
COc1ccc2c(CC3(O)C(=O)Nc4c(Cl)ccc(Cl)c43)nsc2c1 (stereo not drawn) [TK Analog 18]	> 5 µM	> 5 µM	< 5 µM	–	–	–
O=C(CC1(O)C(=O)Nc2c(Cl)ccc(Cl)c21)c1ccc(C2CC2)nc1 (stereo not drawn) [TK Analog 20]	> 5 µM	> 5 µM	> 5 µM	–	–	–
O=C(CC1(O)C(=O)Nc2c(Cl)ccc(Cl)c21)c1ccc(C2CC2)cn1 (stereo not drawn) [TK Analog 21]	> 5 µM	> 5 µM	> 5 µM	–	–	–
O=C(CC1(O)C(=O)Nc2c(Cl)ccc(Cl)c21)c1ccc(C2CC2)s1 (stereo not drawn) [TK Analog 22]	> 5 µM	> 5 µM	< 5 µM	–	–	–
O=C(CC1(O)C(=O)Nc2c(Cl)ccc(Cl)c21)c1cc(C2CC2)cs1 (stereo not drawn) [TK Analog 23]	> 5 µM	> 5 µM	> 5 µM	–	–	–
O=C(CC1(O)C(=O)Nc2c(Cl)ccc(Cl)c21)c1csc(C2CC2)c1 (stereo not drawn) [TK Analog 24]	> 5 µM	> 5 µM	> 5 µM	–	–	–
O=C(CC1(O)C(=O)Nc2c(Cl)ccc(Cl)c21)c1ccc(C2CC2)cc1 (stereo not drawn) [TK-216-2, reference compound]	–	–	–	< 5 µM	< 5 µM	< 5 µM

Second part, the compound after the results:

IC50 ([1]; Homo sapiens, TC-71, 72 h)	IC50 ([2]; Homo sapiens, 72 h)	IC50 ([3]; Homo sapiens, 72 h)	IC50 [1]	IC50 [2]	IC50 [3]	SMILES
< 5 µM	< 5 µM	< 5 µM	–	–	–	O=C(CC1(O)C(=O)Nc2c(Cl)ccc(Cl)c21)c1ccc(C2(F)CC2)cc1 (stereo not drawn) [TK Analog 2]
> 5 µM	> 5 µM	< 5 µM	–	–	–	NC1(c2ccc(C(=O)CC3(O)C(=O)Nc4c(Cl)ccc(Cl)c43)cc2)CC1 (stereo not drawn) [TK Analog 3]
< 5 µM	< 5 µM	< 5 µM	–	–	–	COc1ccc(C(=O)CC2C(=O)Nc3c(Cl)ccc(Cl)c32)cc1 (stereo not drawn) [TK Analog 6]
< 5 µM	< 5 µM	< 5 µM	–	–	–	COc1ccc(C(=O)CC2(F)C(=O)Nc3c(Cl)ccc(Cl)c32)cc1 (stereo not drawn) [TK Analog 7]
< 5 µM	< 5 µM	< 5 µM	–	–	–	O=C(CC1(O)C(=O)Nc2c(Cl)ccc(Cl)c21)c1ccc2sccc2c1 (stereo not drawn) [TK Analog 10]
< 5 µM	< 5 µM	< 5 µM	–	–	–	O=C(CC1(O)C(=O)Nc2c(Cl)ccc(Cl)c21)c1ccc2[nH]ccc2c1 (stereo not drawn) [TK Analog 11]
< 5 µM	< 5 µM	< 5 µM	–	–	–	COc1ccc(C(=O)CC2(O)C(=O)Nc3c(Cl)ccc(Cl)c32)c(F)c1 (stereo not drawn) [TK Analog 15A]
< 5 µM	< 5 µM	< 5 µM	–	–	–	O=C(CC1(O)C(=O)Nc2c(Cl)ccc(Cl)c21)c1ccc2ccccc2c1 (stereo not drawn) [TK Analog 19]
< 5 µM	< 5 µM	< 5 µM	–	–	–	COc1ccc(C(=O)CC2(O)C(=O)Nc3c(Cl)ccc(Cl)c32)cc1 (stereo not drawn) [YK-4-279, 4,7-dichloro-3-hydroxy-3-(2-(4-methoxyphenyl)-2-oxoethyl)indolin-2-one, reference compound]
